The values that follow come from ChEMBL document CHEMBL4177646, “Discovery of novel nitroimidazole enols as Pseudomonas aeruginosa DNA cleavage agents” (Bioorg Med Chem, 2017).

In brackets after ≈: the same amount, converted by molar mass.

What all share (format): functional
For experiment [1], the system named is Pseudomonas aeruginosa. In words: Potency index, ratio of norfloxacin MIC to compound MIC for Pseudomonas aeruginosa ATCC 27853.
The test system of experiment [2] is Staphylococcus aureus. The experiment in a line: Antibacterial activity against Staphylococcus aureus ATCC 29213 after 24 hrs by micro broth dilution method. Particulars: ATCC 29213, 24 h. On the technique in general: Dilution methods test growth across graded concentrations, often in twofold steps.
The test system of experiment [3] is Candida albicans. The experiment in a line: Antifungal activity against Candida albicans ATCC 90023 after 24 hrs by micro broth dilution method. Particulars: ATCC 90023, 24 h.
In experiment [4] the test system is Staphylococcus aureus. The experiment in a line: Antibacterial activity against drug-resistant Staphylococcus aureus after 24 hrs by micro broth dilution method.
For experiment [5], the system named is Staphylococcus aureus. The experiment in a line: Antibacterial activity against Staphylococcus aureus ATCC 25923 after 24 hrs by micro broth dilution method. The settings on record: ATCC 25923, 24 h.
The test system of experiment [6] is Candida albicans. The experiment in a line: Antifungal activity against drug-resistant Candida albicans after 24 hrs by micro broth dilution method.
Experiment [7] deals with Pseudomonas aeruginosa. The experiment in a line: Antibacterial activity against drug-resistant Pseudomonas aeruginosa after 24 hrs by micro broth dilution method.
For experiment [8], the system named is Pseudomonas aeruginosa. In words: Antibacterial activity against Pseudomonas aeruginosa ATCC 27853 after 24 hrs by micro broth dilution method. Particulars: ATCC 27853, 24 h.
Experiment [9] concerns Escherichia coli. In words: Antibacterial activity against drug-resistant Escherichia coli after 24 hrs by micro broth dilution method.
Experiment [10] relates to Escherichia coli. The experiment in a line: Antibacterial activity against Escherichia coli ATCC 25922 after 24 hrs by micro broth dilution method. The settings on record: ATCC 25922, 24 h.
Experiment [11] relates to Staphylococcus aureus. In words: Antibacterial activity against methicillin-resistant Staphylococcus aureus N315 after 24 hrs by micro broth dilution method. Particulars: N315, 24 h.
Experiment [12] concerns Candida tropicalis. The experiment in a line: Antifungal activity against Candida tropicalis after 24 hrs by micro broth dilution method.

Broadly, the MIC is the least concentration at which growth counts as inhibited. Turning to `Cc1ncc([N+](=O)[O-])n1/C(=C/c1ccccc1)C(C)O` (stereo not drawn), the Ratio in [1] was 4 - 16. Besides, the MIC amounted to 1870 µM (≈ 511 µg/mL) in experiment [2]; 16 µg/mL (≈ 58.5 µM) in experiment [3]; 1870 µM (≈ 511 µg/mL) in experiment [4]; 1870 µM (≈ 511 µg/mL) in experiment [5]; 512 µg/mL (≈ 1870 µM) in experiment [6]; 940 µM (≈ 257 µg/mL) in experiment [7]. The minimum inhibitory concentration (MIC) in [8] was 230 µM (≈ 62.9 µg/mL); in experiment [9], 1870 µM (≈ 511 µg/mL); in experiment [10], 1870 µM (≈ 511 µg/mL); in experiment [11] it was 1870 µM (≈ 511 µg/mL); in [12] it was 128 µg/mL (≈ 468 µM).

For `CC(=O)/C(=C\c1ccc(C)cc1)n1c([N+](=O)[O-])cnc1C`, in experiment [1], the Ratio was 4 - 16. For the same compound, the MIC is 450 µM (≈ 128 µg/mL) in experiment [2]; 256 µg/mL (≈ 897 µM) in experiment [3]; 220 µM (≈ 62.8 µg/mL) in [4]; 900 µM (≈ 257 µg/mL) in experiment [5]; 512 µg/mL (≈ 1790 µM) in experiment [6]; 1790 µM (≈ 511 µg/mL) in experiment [7]. Further, the MIC was 450 µM (≈ 128 µg/mL) in experiment [8]; 900 µM (≈ 257 µg/mL) in [9]; 56 µM (≈ 16 µg/mL) in experiment [10]; 1790 µM (≈ 511 µg/mL) in experiment [11]; 256 µg/mL (≈ 897 µM) in experiment [12].

As to `CC(=O)/C(=C\c1c[nH]c2ccccc12)n1c([N+](=O)[O-])cnc1C`, in experiment [1], the Ratio is 4 - 16. The MIC was 830 µM (≈ 258 µg/mL) in experiment [2]; 512 µg/mL (≈ 1650 µM) in experiment [3]; 1650 µM (≈ 512 µg/mL) in experiment [4]; 830 µM (≈ 258 µg/mL) in [5]; 512 µg/mL (≈ 1650 µM) in experiment [6]; 420 µM (≈ 130 µg/mL) in experiment [7]. For the same compound, the MIC came to 420 µM (≈ 130 µg/mL) in experiment [8]; 1650 µM (≈ 512 µg/mL) in experiment [9]; 420 µM (≈ 130 µg/mL) in experiment [10]; 830 µM (≈ 258 µg/mL) in experiment [11]; 512 µg/mL (≈ 1650 µM) in experiment [12].

`Cc1ncc([N+](=O)[O-])n1/C(=C/c1ccccc1Cl)C(C)O` (stereo not drawn): the MIC came to 1670 µM (≈ 514 µg/mL) in experiment [2]; 32 µg/mL (≈ 104 µM) in experiment [3]; 1670 µM (≈ 514 µg/mL) in experiment [4]; 1670 µM (≈ 514 µg/mL) in experiment [5]; 512 µg/mL (≈ 1660 µM) in experiment [6]; 1670 µM (≈ 514 µg/mL) in experiment [7]. For the same compound, the minimum inhibitory concentration (MIC) in experiment [8] is 830 µM (≈ 255 µg/mL); in [9], 1670 µM (≈ 514 µg/mL); in [10], 210 µM (≈ 64.6 µg/mL); in experiment [11], 1670 µM (≈ 514 µg/mL); in experiment [12], 512 µg/mL (≈ 1660 µM).

On to `Cc1ncc([N+](=O)[O-])n1/C(=C/c1c[nH]c2ccccc12)C(C)O` (stereo not drawn), for which the Ratio in experiment [1] was 4 - 16. Also, the minimum inhibitory concentration (MIC) in experiment [2] is 810 µM (≈ 253 µg/mL); in experiment [3], 128 µg/mL (≈ 410 µM); in experiment [4] it was 1630 µM (≈ 509 µg/mL); in experiment [5], 410 µM (≈ 128 µg/mL); in experiment [6] it was 512 µg/mL (≈ 1640 µM); in experiment [7], 810 µM (≈ 253 µg/mL). Further, the MIC in experiment [8] amounted to 410 µM (≈ 128 µg/mL); in experiment [9] it was 810 µM (≈ 253 µg/mL); in experiment [10] it was 410 µM (≈ 128 µg/mL); in experiment [11], 810 µM (≈ 253 µg/mL); in experiment [12] it was 256 µg/mL (≈ 820 µM).

Turning to `Cc1ncc([N+](=O)[O-])n1CCO` [METRONIDAZOLE], the MIC in experiment [2], in [4], in experiment [5], in [7], in experiment [8] and in [9] was 2970 µM (≈ 508 µg/mL) throughout. Moreover, the minimal inhibitory concentration (MIC) in [10] and in experiment [11] was 2970 µM (≈ 508 µg/mL) each time.

As to `CC(=O)/C(=C\c1ccccc1Cl)n1c([N+](=O)[O-])cnc1C`, the MIC in [2] came to 820 µM (≈ 251 µg/mL); in [3] it was 32 µg/mL (≈ 105 µM); in [4], 1640 µM (≈ 501 µg/mL); in experiment [5], 820 µM (≈ 251 µg/mL); in [6], 512 µg/mL (≈ 1670 µM); in [7] it was 830 µM (≈ 254 µg/mL). Besides, the MIC in [8] turned out to be 830 µM (≈ 254 µg/mL); in [9] it was 1640 µM (≈ 501 µg/mL); in experiment [10], 410 µM (≈ 125 µg/mL); in experiment [11], 1640 µM (≈ 501 µg/mL); in experiment [12] it was 64 µg/mL (≈ 209 µM).

`CC(=O)/C(=C\c1ccc(Cl)cc1)n1c([N+](=O)[O-])cnc1C`: the MIC is 1640 µM (≈ 501 µg/mL) in experiment [2]; 128 µg/mL (≈ 419 µM) in [3]; 210 µM (≈ 64.2 µg/mL) in experiment [4]; 1640 µM (≈ 501 µg/mL) in experiment [5]; 512 µg/mL (≈ 1670 µM) in [6]; 1640 µM (≈ 501 µg/mL) in experiment [7]. Further, the MIC in experiment [8] amounted to 820 µM (≈ 251 µg/mL); in [9] it was 1640 µM (≈ 501 µg/mL); in experiment [10], 410 µM (≈ 125 µg/mL); in experiment [11], 1640 µM (≈ 501 µg/mL); in experiment [12] it was 128 µg/mL (≈ 419 µM).

With `CCn1cc(C(=O)O)c(=O)c2cc(F)c(N3CCNCC3)cc21` [NORFLOXACIN], the minimal inhibitory concentration (MIC) in experiment [2] turned out to be 25 µM (≈ 7.98 µg/mL); in [4], 200 µM (≈ 63.9 µg/mL); in [5], 100 µM (≈ 31.9 µg/mL); in experiment [7], 1600 µM (≈ 511 µg/mL); in experiment [8], 1600 µM (≈ 511 µg/mL); in experiment [9] it was 1600 µM (≈ 511 µg/mL). For the same compound, the MIC in experiment [10] worked out at 50 µM (≈ 16 µg/mL); in experiment [11] it was 1600 µM (≈ 511 µg/mL).

On to `Cc1ncc([N+](=O)[O-])n1/C(=C/c1ccc(Cl)cc1Cl)C(C)O` (stereo not drawn), for which the minimum inhibitory concentration (MIC) in experiment [2] was determined as 1500 µM (≈ 513 µg/mL); in experiment [3], 64 µg/mL (≈ 187 µM); in experiment [4], 1500 µM (≈ 513 µg/mL); in experiment [5] it was 1500 µM (≈ 513 µg/mL); in experiment [6] it was 512 µg/mL (≈ 1500 µM); in [7], 1500 µM (≈ 513 µg/mL). The minimal inhibitory concentration (MIC) in experiment [8] came out at 750 µM (≈ 257 µg/mL); in experiment [9], 1500 µM (≈ 513 µg/mL); in experiment [10], 1500 µM (≈ 513 µg/mL); in experiment [11] it was 1500 µM (≈ 513 µg/mL); in [12], 256 µg/mL (≈ 748 µM).
